Drawing on the NIST ThermoML archive (doi:10.1016/j.jct.2007.03.004), this text covers mass density, Normal boiling temperature and refractive index for 4 molecules.

Numbers after ± are expanded uncertainties.

For data set [1] the following is noted: Liquid; for mass density: 293.15 K, 101.33 kPa; for Normal boiling temperature: Distillation.
Data set [2] in a line: refractive index (Na D-line) (dimensionless). The following applies: 293.15 K; 101.33 kPa; Liquid; Standard Abbe refractometry.

In the case of `CCOC(=O)CCC(=O)OCC` [diethyl butanedioate], in data set [1], the mass density was determined as 1040.22 ± 0.5 kg/m3 and the Normal boiling temperature turned out to be 217.7 ± 0.2 °C. The refractive index in data set [2] worked out at 1.42014 ± 0.0007.
For `CCOC(=O)CCCC(=O)OCC` [diethyl glutarate], in that order: 1022.04 ± 1.2 kg/m3, 236.5 ± 0.2 °C and 1.42414 ± 0.00078.
For `CCOC(=O)CCCCC(=O)OCC` [diethyl hexanedioate], in that order: 1007.63 ± 0.41 kg/m3, 245.2 ± 0.2 °C and 1.42725 ± 0.0007.
The matching figures for `CCC(=O)O` [propanoic acid]: 988.04 ± 0.41 kg/m3, 141.4 ± 0.2 °C and 1.3808 ± 0.0007.
